Results from PMC12310023 (PLOS Neglected Tropical Diseases, 2025).
Where two headings read alike, the source gives them in different places.

Legend:
[1] = tested on: NLuc C. parvum (Calibr); assay: Calibr panel, UA Nanoluc C. parvum count; type: cell-based; details: Cryptosporidium parvum
[2] = molecular target: PKD3 (Homo sapiens, UniProt O94806); assay: Kinome profiling; type: biochemical
[3] = Stability of M2 hemiaminal in buffer; type: physicochemical; details: pH 6.8 phosphate buffer, ambient temperature
[4] = molecular target: Cav1.2 (L-type) (Homo sapiens, UniProt Q13936); assay: Bioprofiling panel functional assay; type: cell-based; details: 6 pt dilutions starting at 10 μM; read-out: IC50, antagonist readout
[5] = molecular target: T1, 5-HT2B (Homo sapiens, UniProt P41595); assay: Cerep binding assay; details: agonist radioligand, mean, read-out: % inhibition of control specific binding
T1 construct: Cerep (Eurofins, France)
T1 sequence (P41595 whole entry): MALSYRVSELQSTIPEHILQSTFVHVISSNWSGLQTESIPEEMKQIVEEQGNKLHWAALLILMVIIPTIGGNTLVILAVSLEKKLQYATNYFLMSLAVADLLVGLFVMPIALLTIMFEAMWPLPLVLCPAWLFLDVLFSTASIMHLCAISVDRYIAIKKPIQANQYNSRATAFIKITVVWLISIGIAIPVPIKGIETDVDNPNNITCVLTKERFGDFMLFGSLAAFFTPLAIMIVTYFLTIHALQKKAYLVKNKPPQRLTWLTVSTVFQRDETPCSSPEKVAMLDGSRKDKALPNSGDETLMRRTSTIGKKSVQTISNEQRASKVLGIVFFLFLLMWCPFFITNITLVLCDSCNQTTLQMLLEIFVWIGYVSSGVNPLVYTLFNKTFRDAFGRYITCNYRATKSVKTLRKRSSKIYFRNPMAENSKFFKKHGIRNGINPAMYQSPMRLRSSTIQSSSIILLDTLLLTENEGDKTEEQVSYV

[6] = molecular target: T2, PPARУ (Homo sapiens, UniProt P37231); assay: Cerep cellular and nuclear receptor functional assay; type: cell-based
T2 construct: Cerep (Eurofins, France)
T2 sequence (P37231 1-505): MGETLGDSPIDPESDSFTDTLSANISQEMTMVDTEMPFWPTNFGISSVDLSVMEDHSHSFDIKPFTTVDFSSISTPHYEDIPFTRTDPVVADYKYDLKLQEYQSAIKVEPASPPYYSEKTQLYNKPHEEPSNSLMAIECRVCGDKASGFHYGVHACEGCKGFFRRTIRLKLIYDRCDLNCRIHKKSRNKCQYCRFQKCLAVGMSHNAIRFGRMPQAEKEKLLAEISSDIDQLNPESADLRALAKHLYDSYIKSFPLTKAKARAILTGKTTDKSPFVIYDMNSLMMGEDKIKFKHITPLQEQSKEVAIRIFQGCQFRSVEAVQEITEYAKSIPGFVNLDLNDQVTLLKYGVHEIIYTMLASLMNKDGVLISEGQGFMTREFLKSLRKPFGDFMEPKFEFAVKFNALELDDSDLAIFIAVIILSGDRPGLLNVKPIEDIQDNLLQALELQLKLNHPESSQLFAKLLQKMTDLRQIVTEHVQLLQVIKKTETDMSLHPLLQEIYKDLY

[7] = molecular target: T3, CYP2C8 (Homo sapiens, UniProt P10632); assay: in vitro; details: recombinant CYP2C8 supersomes
T3 sequence (P10632 1-490): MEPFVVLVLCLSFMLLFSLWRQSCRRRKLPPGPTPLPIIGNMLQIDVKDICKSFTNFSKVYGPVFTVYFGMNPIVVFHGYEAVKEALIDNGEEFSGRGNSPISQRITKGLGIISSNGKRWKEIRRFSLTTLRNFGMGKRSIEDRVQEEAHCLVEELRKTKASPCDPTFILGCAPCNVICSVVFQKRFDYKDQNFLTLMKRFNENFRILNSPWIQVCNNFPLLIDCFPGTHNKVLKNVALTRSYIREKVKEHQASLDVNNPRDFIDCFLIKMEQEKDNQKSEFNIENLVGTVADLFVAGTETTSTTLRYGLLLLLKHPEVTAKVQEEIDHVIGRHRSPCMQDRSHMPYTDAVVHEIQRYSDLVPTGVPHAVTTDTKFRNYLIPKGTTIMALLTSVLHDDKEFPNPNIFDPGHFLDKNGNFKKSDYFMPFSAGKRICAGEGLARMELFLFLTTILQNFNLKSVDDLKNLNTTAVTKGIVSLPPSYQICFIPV

[8] = molecular target: CYP2C9 (Homo sapiens, UniProt P11712); assay: in vitro; details: recombinant CYP2C9 supersomes
Sequence of CYP2C9 (P11712 whole entry): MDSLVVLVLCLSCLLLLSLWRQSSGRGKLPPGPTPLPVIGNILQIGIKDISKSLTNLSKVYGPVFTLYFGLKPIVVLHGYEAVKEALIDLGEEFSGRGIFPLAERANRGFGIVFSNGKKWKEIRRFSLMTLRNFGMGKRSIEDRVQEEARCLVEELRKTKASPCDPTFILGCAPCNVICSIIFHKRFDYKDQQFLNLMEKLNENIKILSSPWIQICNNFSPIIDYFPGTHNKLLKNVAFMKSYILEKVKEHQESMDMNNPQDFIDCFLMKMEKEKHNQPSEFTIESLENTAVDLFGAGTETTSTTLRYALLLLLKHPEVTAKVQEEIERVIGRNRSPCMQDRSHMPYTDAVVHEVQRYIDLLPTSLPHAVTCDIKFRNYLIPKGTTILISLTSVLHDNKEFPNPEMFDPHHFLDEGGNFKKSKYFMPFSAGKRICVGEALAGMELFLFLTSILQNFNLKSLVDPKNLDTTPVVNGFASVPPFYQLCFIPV

[9] = molecular target: T4, CYP2D6 (Homo sapiens, UniProt P10635); assay: in vitro; details: recombinant CYP2D6 supersomes
T4 sequence (P10635 whole entry): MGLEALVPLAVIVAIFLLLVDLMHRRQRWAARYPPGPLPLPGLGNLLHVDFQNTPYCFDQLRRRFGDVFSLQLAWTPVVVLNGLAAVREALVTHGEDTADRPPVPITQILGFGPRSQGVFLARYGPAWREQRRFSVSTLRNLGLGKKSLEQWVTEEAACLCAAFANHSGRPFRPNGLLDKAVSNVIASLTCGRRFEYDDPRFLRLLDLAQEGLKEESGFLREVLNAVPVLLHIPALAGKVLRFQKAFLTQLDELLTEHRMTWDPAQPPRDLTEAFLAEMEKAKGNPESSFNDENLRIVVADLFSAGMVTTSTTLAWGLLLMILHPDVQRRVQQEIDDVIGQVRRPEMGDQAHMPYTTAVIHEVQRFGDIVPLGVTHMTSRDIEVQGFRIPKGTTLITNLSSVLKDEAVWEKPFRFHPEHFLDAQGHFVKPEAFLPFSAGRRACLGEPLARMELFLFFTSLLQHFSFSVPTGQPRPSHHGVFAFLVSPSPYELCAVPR

[10] = molecular target: CYP3A4 (Homo sapiens, UniProt P08684); assay: biochemical
Sequence of CYP3A4 (P08684 whole entry): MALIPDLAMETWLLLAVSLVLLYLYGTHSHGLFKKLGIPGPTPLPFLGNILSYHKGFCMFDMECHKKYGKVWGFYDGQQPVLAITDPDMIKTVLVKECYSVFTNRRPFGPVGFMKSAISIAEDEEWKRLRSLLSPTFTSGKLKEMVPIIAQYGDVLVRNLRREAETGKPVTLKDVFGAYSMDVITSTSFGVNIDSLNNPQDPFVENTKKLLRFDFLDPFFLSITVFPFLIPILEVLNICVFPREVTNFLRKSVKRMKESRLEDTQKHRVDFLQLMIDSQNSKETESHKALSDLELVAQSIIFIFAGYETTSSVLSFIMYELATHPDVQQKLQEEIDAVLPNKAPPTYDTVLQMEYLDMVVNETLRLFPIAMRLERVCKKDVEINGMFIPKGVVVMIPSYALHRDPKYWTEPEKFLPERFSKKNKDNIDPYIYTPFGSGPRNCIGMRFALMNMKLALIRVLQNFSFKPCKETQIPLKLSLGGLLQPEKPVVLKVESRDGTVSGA

[11] = Hepatocyte stability; details: human
[12] = Mouse PK, IFNγ-KO BL6
[13] = molecular target: T5, A3 (Homo sapiens, UniProt P0DMS8); assay: Cerep binding assay; design: Cerep (Eurofins, France); details: agonist radioligand, mean, read-out: % inhibition of control specific binding
T5 sequence (P0DMS8 1-318): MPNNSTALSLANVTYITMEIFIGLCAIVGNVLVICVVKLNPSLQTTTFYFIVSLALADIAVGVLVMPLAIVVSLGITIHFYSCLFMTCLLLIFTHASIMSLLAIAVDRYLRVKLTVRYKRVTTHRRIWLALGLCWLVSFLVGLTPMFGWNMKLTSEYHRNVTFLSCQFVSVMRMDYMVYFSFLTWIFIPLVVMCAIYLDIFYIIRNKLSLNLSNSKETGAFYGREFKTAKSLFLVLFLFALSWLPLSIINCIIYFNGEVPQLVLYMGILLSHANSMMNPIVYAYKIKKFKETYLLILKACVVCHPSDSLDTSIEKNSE

[14] = tested on: CYP1A2; assay: CYP Induction Assay in dog hepatocytes; details: 30 and 100 μM, 48 h
[15] = Plasma protein binding, equilibrium dialysis; details: dog
[16] = molecular target: T4, CYP2D6; assay: CYP reaction phenotyping, recombinant supersomes
[17] = molecular target: CYP2C19 (Homo sapiens, UniProt P33261); assay: CYP reaction phenotyping, recombinant supersomes
Sequence of CYP2C19 (P33261 whole entry): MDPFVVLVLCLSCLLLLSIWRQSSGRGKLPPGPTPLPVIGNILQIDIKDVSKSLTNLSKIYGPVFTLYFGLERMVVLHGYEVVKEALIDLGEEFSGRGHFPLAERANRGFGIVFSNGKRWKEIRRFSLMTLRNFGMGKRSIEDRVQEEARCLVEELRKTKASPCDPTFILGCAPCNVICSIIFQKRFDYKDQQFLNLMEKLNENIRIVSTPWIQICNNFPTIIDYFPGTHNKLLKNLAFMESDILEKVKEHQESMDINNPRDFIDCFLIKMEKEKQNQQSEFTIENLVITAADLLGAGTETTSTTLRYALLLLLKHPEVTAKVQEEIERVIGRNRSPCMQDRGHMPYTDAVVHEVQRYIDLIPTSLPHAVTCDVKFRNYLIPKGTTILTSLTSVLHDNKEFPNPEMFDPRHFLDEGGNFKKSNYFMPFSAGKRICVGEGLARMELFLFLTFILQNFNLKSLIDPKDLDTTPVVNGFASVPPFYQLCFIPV

[18] = Mouse plasma, brain and GI exposure PK, Balb/c, 30 mg/kg PO; details: 6 h, after BKI-1708

Sequence of PKD3 (O94806 whole entry): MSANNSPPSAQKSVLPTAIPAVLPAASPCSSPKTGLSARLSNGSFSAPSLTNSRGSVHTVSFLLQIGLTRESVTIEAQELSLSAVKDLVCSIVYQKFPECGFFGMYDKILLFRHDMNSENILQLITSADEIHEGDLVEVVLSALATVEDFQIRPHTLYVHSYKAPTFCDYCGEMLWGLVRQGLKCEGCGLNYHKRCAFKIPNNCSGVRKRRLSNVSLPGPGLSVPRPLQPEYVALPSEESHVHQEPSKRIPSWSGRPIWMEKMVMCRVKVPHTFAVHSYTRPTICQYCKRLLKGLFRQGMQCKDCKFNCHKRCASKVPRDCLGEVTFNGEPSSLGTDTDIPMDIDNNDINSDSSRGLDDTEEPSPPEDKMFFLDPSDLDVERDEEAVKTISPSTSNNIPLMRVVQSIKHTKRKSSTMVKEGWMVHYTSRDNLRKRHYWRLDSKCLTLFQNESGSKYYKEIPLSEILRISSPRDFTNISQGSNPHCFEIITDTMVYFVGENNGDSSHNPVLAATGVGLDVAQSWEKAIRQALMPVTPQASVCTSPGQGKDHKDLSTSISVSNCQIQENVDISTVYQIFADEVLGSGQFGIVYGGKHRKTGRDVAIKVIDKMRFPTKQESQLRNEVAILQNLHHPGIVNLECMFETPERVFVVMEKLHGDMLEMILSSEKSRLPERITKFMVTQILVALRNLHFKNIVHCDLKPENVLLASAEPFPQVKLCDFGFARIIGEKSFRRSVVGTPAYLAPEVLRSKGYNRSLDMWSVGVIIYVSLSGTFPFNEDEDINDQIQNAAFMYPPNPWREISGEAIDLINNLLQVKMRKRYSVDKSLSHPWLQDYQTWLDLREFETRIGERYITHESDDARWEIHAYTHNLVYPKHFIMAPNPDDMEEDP

## CC1(C)Cn2nc(-c3ccc4cc(OC5CC5)ccc4c3)c(C(N)=O)c2NC1O (stereo not drawn) [M2]
[1]; Replicate 1, read-out: UA Nanoluc C. parvum Count EC50
  EC50: 468 nM
[1]; Replicate 1, read-out: UA Nanoluc C. parvum Count EC90
  EC90: 1460 nM
[1]; Replicate 2, read-out: UA Nanoluc C. parvum Count EC50
  EC50: 212 nM
[1]; Replicate 2, read-out: UA Nanoluc C. parvum Count EC90
  EC90: 1010 nM
[1]; read-out: EC50
  EC50: 340 nM
[1]; read-out: EC90
  EC90: 1240 nM
[2]
  IC50: 230 nM
[3]
  time hemiaminal stable: up to 24 h
[4]
  IC50: 8100 nM
[5]
  inhibition at 10 µM: 57.1%
[6]
  agonist effect: no effect up to 100 μM
[6]; read-out: IC50, antagonist effect
  IC50: > 100000 nM
[7]
  CLint scaled: < 1.78 mL/min/kg
  half-life: > 4 h
[8]
  CLint scaled: < 1.78 mL/min/kg
  half-life: > 4 h
[9]
  CLint scaled: < 0.183 mL/min/kg
  half-life: > 4 h
[10]
  IC50: > 40000 nM
[11]; liver microsomes and primary hepatocytes
  LM:hepatocyte CLint_scaled ratio: <2.5
[11]; primary hepatocytes
  CLint scaled: 10 mL/min/kg
  half-life: 6.27 h
  hepatocyte CLint: 3.7 µL/min/1e6 cells
[12]; after BKI-1708 IV 3 mg/kg
  M2 AUC0-inf: 792 ± 18 µmol·min/L
[12]; after BKI-1708 PO 15 mg/kg
  M2 AUC0-inf: 5948 ± 1398 µmol·min/L
[13]
  inhibition at 10 µM: 72.6%
[14]
  induction of CYP1A2: strong inducers
[15]
  fraction unbound: 0.1
[16]
  % contribution: 0.0%
  CLint: <0.029 µL/min/pmol
[17]
  % contribution: 0.0%
  CLint: <0.029 µL/min/pmol
[18]
  M2 peak level in jejunum, ileum, cecum/colon: > 1 µM
